What all share (assay type): in vivo, mouse
One assay has as its system GLUT1-DS transgenic mice. The assay can be described thus: Rotarod motor function in GLUT1-DS transgenic mice. The conditions noted are these: single administration 10 mg/kg, 20 min before rotarod. The text has this:
Heterozygous transgenic mice on 129/SvJ genetic background in which glucose transporter 1 (GLUT1) has been knocked down were used (GLUT1(+/−)) (Wang et al., 2016, Human Molecular Genetics, 15(7)). GLUT1-deficiency syndrome (GLUT1-DS) is a prototypic hypometabolic diseases caused by the mutation of GLUT1 and decreased levels of glucose and lactate in the brain (Tang et al., 2019, Annals of Clinical and Translational Neurology 6(9)). Mating colonies were composed of wild-type female mice and GLUT1-DS male mice, or GLUT1-DS female mice and wild-type male mice. F1 pups were genotyped after ear punching at weaning using PCR to determine genotype. Mice of 2 to 3 months of age were used.
Motor function was measured in wild-type (WT) and GLUT 1-DS transgenic mice in the rotarod after single administration of Veh. or compound (1) or (2) (10 mg/kg) 20 min before rotarod. Rotarod testing consisted in placing the mouse on an accelerating rotating rod (4 to 40 r.p.m.) during a maximum of 300 seconds. 3 consecutive sessions with 15 min apart were performed. Latency for the mouse to fall from the rod was recorded and the maximal latency over the 3 trials was used as a measure of motor function.
(In general: Falling from the rotarod earlier than controls is read as motor impairment.)

The test system of a further assay is C57Bl/6J wild-type mice. Nature of the assay: 18F-FDG PET glucose uptake in the brain. The following applies: gavage, 30 mg/kg, vs Vehicle. As to the method: All experiments were carried out in strict accordance with the Swiss Federal Guidelines for Animal Experimentation and were approved by the Cantonal Veterinary Office for Animal Experimentation (Canton of Geneva, Switzerland). Adult male C57Bl/6J wild-type mice weighting 18-28 g (8 to 12 weeks of age) were used (Charles River Laboratories). Animals were housed in groups of 3-5 in polypropylene cages (30×40×15 cm) with wire mesh top in a temperature (22±2° C.) and humidity (55±15%) controlled environment on a 12-hour light cycle (07.00-19.00 h lights on), except after surgeries when animal were housed individually. The samples (Vehicle or compounds of the invention) were administered per os (gavage) in a solution made of water supplemented with 0.4% hydroxypropyl methylcellulose (HPMC) Methocel 4 KM (w/v) and 0.25% Tween-20 (v/v), as previously described (Thackaberry et al., 2010, Toxicol Sci., 117(2):485-92). Concentrations of the compounds tested ranged from 3 to 30 mg/kg.
^18F-FDG PET Glucose uptake in the brain was measured in vivo using 18F-fluorodeoxyglucose (FDG) with positron emission tomography (PET) Scan. Mice were fasted for 12 hours before the scans PET/CT measurements. Compounds of the invention were administered by gavage, followed by an intraperitoneal injection of 5 MBq of ^18F-FDG in 300 μL of saline. […]

For assay [1], the system named is old C57Bl/6J wild-type mice. Nature of the assay: Morris Water Maze memory in old (16-month-old) wild-type mice. The conditions noted are these: 1 day after training. Here is the method: Adult male C57Bl/6J wild-type from 3 month of age (young adults) to 16 month of age (old adults) are used (Charles River). Animals are housed in groups of 3-5 in polypropylene cages (30×40×15 cm) with wire mesh top in a temperature (22±2° C.) and humidity (55±15%) controlled environment on a 12-hour light cycle (07.00-19.00 h lights on). The samples (Vehicle or compounds of the invention) are administered per os (gavage) in a solution made of water supplemented with 0.4% hydroxypropyl methylcellulose (HPMC) Methocel 4 KM (w/v) and 0.25% Tween-20 (v/v), as previously described (Thackaberry et al., 2010, Toxicol Sci., 117(2):485-92). Memory of young adults treated with Vehicle or Old adults treated with Vehicle or compound (1) at 10 mg/kg or 30 mg/kg is tested in the Morris Water Maze, as described below. Treatment is administered at each day of training, 30 minutes before the first training session. No treatment is administered during memory retention test.
Morris Water Maze (MWM), a well-established spatial and contextual memory test, will be used. […] A number of parameters including the latency to find the platform, time spent around the platform, path efficiency, % time spent in each quadrant is recorded, using automated tracking software (Ethovision). The type of exploration (direct, random, scan of the area) is also recorded. […]

Turning to `COc1cc2ccnc(Nc3ccc(S(C)(=O)=O)cc3)c2cc1OC` [Compound 2, 6,7-dimethoxy-N-(4-methylsulfonylphenyl)isoquinolin-1-amine], in the assay on GLUT1-DS transgenic mice, the “rotarod performance (latency to fall)” value is listed as “increased rotarod performance”. Also, the “glucose uptake in the brain (18F-FDG in the whole brain)” value in the assay with C57Bl/6J wild-type mice is reported as “increases glucose uptake in the brain”. Besides, the “memory in the Morris Water Maze” value in assay [1] (10 mg/kg per os) and in assay [1] (30 mg/kg per os) was “significant increase of memory” throughout.

For the origin of these results see patent publication US20260125357A1, “LACTATE ENHANCING COMPOUNDS AND USES THEREOF” (GLIAPHARM SA, priority 2022, published 2026).
